# From patent US9040565B2, “1H-benzimidazole-5-carboxamides as anti-inflammatory agents” (Orexo AB, priority 2008, dated 2015)
# Molecular target: T1, recombinant human mPGES-1 (Homo sapiens, UniProt O14684)
# T1 construct: made in house; host or cells: Rosetta E. coli (microsomal/membrane fraction)
# T1 sequence (O14684 1-152): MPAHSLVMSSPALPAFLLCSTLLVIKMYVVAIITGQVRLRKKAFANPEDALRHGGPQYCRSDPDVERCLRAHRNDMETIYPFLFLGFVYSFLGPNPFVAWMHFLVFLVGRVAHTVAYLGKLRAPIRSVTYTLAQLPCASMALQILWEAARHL
# Assay: mPGES-1 inhibition, HTRF detection of PGE2 (Biological Test)
# Type: biochemical
# Method: Microsomes from Rosetta E. coli bacteria expressing recombinant human mPGES-1 is dissolved in 0.1 M KPi pH 7.4 buffer containing 2.5 mM GSH. 50 μl of the enzyme is subsequently dispensed in a 384-well plate. 0.5 μl of the inhibitor dissolved in DMSO at is thereafter added to each well and incubated for 25 minutes at room temperature.
# Subsequently, 2 μl of PGH2 dissolved in an appropriate solvent is added to each well and after one minute the acidified stop solution containing FeCl2 is added. 4 μl of the total volume is transferred to a separate plate and diluted 750-fold in two separate steps before HTRF detection of PGE2.
# The HTRf detection is performed by the use of a commercially available kit from CisBio essentially according to the manufacturer's protocol. Briefly, 10 μl of the diluted sample is transferred to a white 384-well plate. 5 μl of d2 and 5 μl Eu3+-Cryptate labeled anti-PGE2 is added to each well containing samples by the use of a Multidrop. The plate is covered with a plastic self-adhesive film, centrifuged at 1200 rpm for 1 minute and subsequently stored at +4° C. over night.
# After over night incubation the fluorescence is measured by the use of an appropriate microplate reader. The fluorescence of europium cryptate, and d2 are measured using the following excitation and emission wavelength, europium cryptate: λmax^ex=307 nm, λmax^em=620 nm and d2: λmax^ex=620 nm, λmax^em=665 nm), respectively. The extent of the specific FRET is measured as a ratio of the emission intensity at 665 nm vs. that at 620 nm. A standard curve using synthetic PGE2 is used to quantify the amount of PGE2 in unknown samples.
row,inhibition at 10 µM [%],Compound
1,96,"CN(C)CCOc1cc2[nH]c(Nc3c(Cl)cncc3Cl)nc2cc1C(=O)Nc1ccc(Br)cc1 [Example 687, 2-(3,5-Dichloro-pyridin-4-ylamino)-6-(2-dimethylamino-ethoxy)-N-(4-bromo-phenyl)-1H-benzimidazole-5-carboxamide]"
2,100,"COc1cc2[nH]c(Nc3c(Cl)cncc3Cl)nc2cc1C(=O)Nc1cccc(N(C)C)n1 [Example 696, 2-(3,5-Dichloropyridin-4-ylamino)-N-(6-dimethylamino-pyridin-2-yl)-6-methoxy-1H-benzimidazole-5-carboxamide]"
3,100,"COc1cc2[nH]c(Nc3c(Cl)cncc3Cl)nc2cc1C(=O)NCc1ncccc1C1CCC1 [Example 688, 2-(3,5-Dichloro-pyridin-4-ylamino)-N-((3-cyclobutyl-pyridin-2-yl)-methyl)-6-methoxy-1H-benzimidazole-5-carboxamide]"
4,98,"CCOc1cc2[nH]c(Nc3c(Cl)cncc3Cl)nc2cc1C(=O)Nc1ccc(F)c(C(F)F)n1 [Example 710, 2-(3,5-Dichloropyridin-4-ylamino)-N-(5-fluoro-6-difluoromethyl-pyridin-2-yl)-6-ethoxy-1H-benzimidazole-6-carboxamide]"
5,100,O=C(Nc1cc(C(F)F)c(F)cn1)c1cc2nc(Nc3c(Cl)cncc3Cl)[nH]c2cc1OCC(F)(F)F [Example 699]
6,94,"CCOc1cc2[nH]c(Nc3c(Cl)cncc3Cl)nc2cc1C(=O)Nc1ccc(Br)cc1 [Example 695, 2-(3,5-Dichloropyridin-4-ylamino)-N-(4-bromo-phenyl)-6-ethoxy-1H-benzimidazole-6-carboxamide]"
7,100,CCOc1cc2[nH]c(Nc3c(Cl)cncc3Cl)nc2cc1C(=O)Nc1cc(C(F)(F)F)cc(N(C)C)n1 [Example 697]
8,100,CCOc1cc2[nH]c(Nc3c(Cl)cncc3Cl)nc2cc1C(=O)Nc1cc(C)cc(C(F)(F)F)n1 [Example 709]
9,100,"O=C(Nc1cccc(C(F)F)n1)c1cc2nc(Nc3c(Cl)cncc3Cl)[nH]c2cc1OCC(F)(F)F [Example 708, 2-(3,5-Dichloropyridin-4-ylamino)-N-(6-difluoromethyl-pyridin-2-yl)-6-(2,2,2-trifluoroethoxy)-1H-benzimidazole-6-carboxamide]"
10,95,"COc1cc2[nH]c(Nc3c(Cl)cncc3Cl)nc2cc1C(=O)Nc1cc(C(F)(F)F)cc(N(C)C)n1 [Example 692, 2-(3,5-Dichloropyridin-4-ylamino)-N-(6-dimethylamino-4-trifluoromethyl-pyridin-2-yl)-6-methoxy-1H-benzimidazole-5-carboxamide]"
11,100,CCOc1cc2c(cc1C(=O)Nc1ccc(Br)cc1)nc(Nc1c(Cl)cncc1Cl)n2CC(F)(F)F [Example 704]

# Further lines, the compound ahead of its results:
row,Compound,inhibition at 10 µM [%]
1,"O=C(NCc1ncccc1C(F)(F)F)c1ccc2[nH]c(Nc3c(Cl)cncc3Cl)nc2c1 [Example 565, 2-(3,5-Dichloropyridin-4-ylamino)-N-((3-trifluoromethyl-pyridin-2-yl)methyl)-1H-benzimidazole-5-carboxamide]",84
2,"CC1(C)CCC(NC(=O)c2ccc3[nH]c(Nc4c(Cl)cncc4Cl)nc3c2)CC1 [Example 446, 2-(3,5-Dichloropyridin-4-ylamino)-N-(4,4-dimethylcyclohexyl)-1H-benzimidazole-5-carboxamide]",100
3,"O=C(NCC(F)(F)C(F)(F)C(F)(F)C(F)(F)F)c1cc2nc(Nc3ncc(Cl)cc3Cl)[nH]c2cc1OC(F)F [Example 700, 2-(3,5-Dichloro-pyridin-2-yl-amino)-N-(2,2,3,3,4,4,5,5,5-nonafluoro-pentyl)-6-(difluoromethoxy)-1H-benzimidazole-5-carboxamide]",98
4,"CN1CCC(Oc2cc3c(cc2C(=O)Nc2ccc(Br)cc2)nc(Nc2c(Cl)cncc2Cl)n3C)C1 (stereo not drawn) [Example 662, 2-(3,5-Dichloropyridin-4-ylamino)-N-(4-bromophenyl)-6-(N-methyl-pyrrolidin-3-yl-oxy)-1-methyl-1H-benzimidazole-5-carboxamide]",99
5,"Cn1c(Nc2c(Cl)cncc2Cl)nc2cc(C(=O)NC3CCC(C)(C)CC3)ccc21 [Example 435, 2-(3,5-dichloropyridin-4-ylamino)-N-(4,4-dimethylcyclohexyl)-1-methyl-1H-benzimidazole-5-carboxamide]",100
6,"CCOc1cc2c(cc1C(=O)NCc1ncccc1C(F)(F)F)nc(Nc1c(Cl)cncc1Cl)n2C [Example 668, 2-(3,5-Dichloropyridin-4-ylamino)-N-((3-trifluoromethyl-pyridin-2-yl)-methyl)-6-ethoxy-1-methyl-1H-benzimidazole-5-carboxamide]",100
7,"COc1cc2[nH]c(Nc3c(Cl)cncc3Cl)nc2cc1C(=O)Nc1ccc(Br)cn1 [Example 682, 2-(3,5-Dichloro-pyridin-4-ylamino)-N-(5-bromo-pyridin-2-yl)-6-methoxy-1H-benzimidazole-5-carboxamide]",99
8,"CN(C)c1cc2c(cc1C(=O)NC1CCC(C)(C)CC1)nc(Nc1c(Cl)cncc1Cl)n2C [Example 672, 2-(3,5-Dichloropyridin-4-ylamino)-N-(4,4-dimethyl-cyclohexyl)-6-dimethylamino-1-methyl-1H-benzimidazole-5-carboxamide]",100
9,"CCOc1cc2[nH]c(Nc3c(Cl)cncc3Cl)nc2cc1C(=O)NCC(F)(F)C(F)(F)C(F)(F)C(F)(F)F [Example 691, 2-(3,5-Dichloropyridin-4-ylamino)-N-(2,2,3,3,4,4,5,5,5-nonafluoropentyl)-6-ethoxy-1H-benzimidazole-5-carboxamide]",97
10,"O=C(N[C@H]1CC[C@H](C(F)(F)F)CC1)c1cc2nc(Nc3c(Cl)cncc3Cl)[nH]c2cc1OCC(F)(F)F [Example 675, 2-(3,5-Dichloro-pyridin-4-yl-amino)-6-(2,2,2-trifluoro-ethoxy)-N-(trans-4-trifluoromethyl-cyclohex-1-yl)-1H-benzimidazole-5-carboxamide]",100
11,"O=C(Nc1ccc(Br)cc1)c1cc2nc(Nc3c(Cl)cncc3Cl)[nH]c2cc1OCCF [Example 678, 2-(3,5-Dichloropyridin-4-ylamino)-N-(4-bromophenyl)-6-(2-fluoroethoxy)-1H-benzimidazole-5-carboxamide]",100
12,"Cc1ccnc(Cl)c1Nc1nc2ccc(C(=O)NC3CCC(C)(C)CC3)cc2[nH]1 [Example 531, 2-(2-Chloro-4-methylpyridin-3-ylamino)-N-(4,4-dimethylcyclohexyl)-1H-benzimidazole-5-carboxamide]",93
13,"CCCOc1cc2c(cc1C(=O)Nc1ccc(Br)cc1)nc(Nc1c(Cl)cncc1Cl)n2C [Example 660, 2-(3,5-Dichloropyridin-4-ylamino)-N-(4-bromophenyl)-6-propoxy-1-methyl-1H-benzimidazole-5-carboxamide]",99
14,"Cn1c(Nc2c(Cl)cncc2Cl)nc2cc(C(=O)Nc3ccc(Br)cc3)c(OC3CCOC3)cc21 (stereo not drawn) [Example 661, 2-(3,5-Dichloropyridin-4-ylamino)-N-(4-bromophenyl)-6-(tetrahydrofuran-3-yl-oxy)-1-methyl-1H-benzimidazole-5-carboxamide]",100
15,"Cn1c(Nc2c(Cl)cncc2Cl)nc2cc(C(=O)Nc3ccc(Br)cc3)c(OCCN3CCCC3)cc21 [Example 663, 2-(3,5-Dichloropyridin-4-ylamino)-N-(4-bromophenyl)-6-(2-(pyrrolidin-1-yl)-ethoxy)-1-methyl-1H-benzimidazole-5-carboxamide]",96
16,"COCCOc1cc2c(cc1C(=O)Nc1ccc(Br)cc1)nc(Nc1c(Cl)cncc1Cl)n2C [Example 666, 2-(3,5-Dichloropyridin-4-ylamino)-N-(4-bromophenyl)-6-(2-methoxy-ethoxy)-1-methyl-1H-benzimidazole-5-carboxamide]",100
17,"CCOc1cc2[nH]c(Nc3c(Cl)cncc3Cl)nc2cc1C(=O)Nc1cc(C(F)F)c(F)cn1 [Example 655, 2-(3,5-Dichloro-pyridin-4-yl-amino)-6-ethoxy-N-(5-fluoro-4-difluoromethyl-pyridin-2-yl)-1H-benzimidazole-5-carboxamide]",100
18,"COCCOc1cc2[nH]c(Nc3c(Cl)cncc3Cl)nc2cc1C(=O)Nc1ccc(Br)cc1 [Example 685, 2-(3,5-Dichloro-pyridin-4-ylamino)-6-(2-methoxy-ethoxy)-N-(4-bromo-phenyl)-1H-benzimidazole-5-carboxamide]",98
19,"CC1(C)CCC(NC(=O)c2ccc3nc(Nc4c(Cl)cncc4Cl)[nH]c3c2)CC1 [Example 409, 2-(3,5-Dichloropyridin-4-ylamino)-N-(4,4-dimethylcyclohexyl)-1H-benzimidazole-6-carboxamide]",100
